# Laboratory results published in patent EP4755881A1 (Wuhan Createrna Science and Technology Co., Ltd., priority 2023, dated 2025).
# pIC50: −log10 of the molar value. Where two headings read alike, the source gives them in different places.
# What was measured:
# [1] = molecular target: hLPAR1 (human lysophosphatidic acid receptor 1, Accession No.: NM_001401.4) (Homo sapiens, UniProt Q92633); assay: cell-based; settings: FLIPR method, CHO-K1 cells overexpressing hLPAR1
# Experimental: The antagonist properties of the compounds in the present disclosure were determined using the FLIPR (Fluorometric Imaging Plate Reader) method in CHO-K1 cells (Chinese Hamster Ovary cells K1, ATCC) overexpressing hLPAR1 (human lysophosphatidic acid receptor 1, Accession No.: NM_001401.4).
# CHO-K1 cells stably expressing hLPAR1 were placed in a cell culture incubator at 37°C with 5% CO2 and cultured in F-12 medium containing 10% FBS (fetal bovine serum, Gibco, 10099-141), 1% penicillin-streptomycin (Gibco, 15140-122), and 0.4 mg/mL Hygromycin B (Gibco, 10687010). 18-24 hours before the FLIPR experiment, the cells were seeded into a 96-well plate at a density of 250,000 cells/mL (25,000 cells/well) and incubated overnight in the cell culture incubator. On the day of the experiment, the medium was removed, and the cells were washed with FLIPR buffer (2.5 mM probenecid (Thermo, P36400), 1.3 mM CaCl2, 3.3 mM Na2CO3, 1 mM MgSO4, 20 mM HEPES (Invitrogen, 15630080), 1× HBSS (Invitrogen, 14065056), 0.1% BSA (BioSharp, 70080030)). 75 µL of […] Fluo-4 AM fluorescent dye (Thermo, F14202) was added to each well and incubated for 1.0 hour at 37°C for dye loading. The 96-well plate was then washed once with buffer, and 50 µL of buffer containing the test compound or vehicle was added to each well, followed by incubation at room temperature for 30 min. The cell plate was then placed into the FLIPR for baseline fluorescence measurement (excitation wavelength at 485 nm, emission wavelength at 525 to 535 nm). Subsequently, 50 µL/well of agonist (final concentration 1 µM oleoyl-L-α-lysophosphatidic acid sodium salt (Sigma, L7260)) or vehicle (ultrapure water) was added, and fluorescence values were measured at 1-second intervals for 2 min. Finally, the output fluorescence counts were analyzed using GraphPad Prism 9.0 software log(inhibitor) vs. response--Variable slope (four parameters) equation to calculate IC50 values.
# Table 1: Inhibitory activity data of compounds against LPAR1
# [2] = Pharmacokinetic study in rats (oral gavage and tail vein injection, plasma LC-MS/MS); assay type: in vivo
# Experimental: Male SPF-grade SD rats (Beijing Vital River Laboratory Animal Technology Co., Ltd.) with a body weight range of 200 to 250 g were used. After acclimatization, the rats were administered a clear solution of the compound of the present disclosure via oral gavage (Po, fasted overnight before administration with free access to water, food returned 4 hours after administration) and tail vein injection (Iv, free access to food and water throughout the administration). Blood samples were collected from the orbital venous plexus/jugular vein of rats at specified time points after administration (blood collection time points for the PO group: 0.167, 0.5, 1, 2, 4, 6, 8, and 24 h; for the IV group: 0.033, 0.167, 1, 2, 4, 6, 8, and 24 h). The concentration of compounds in plasma was detected by LC-MS/MS (AB SCIEX Qtrap4500). Data were analyzed using WinNonlin (version 5.2.1 Pharsight, Mountain View, CA) with a non-compartmental model to obtain PK parameters (including Cmax, C0, Tmax, AUClast, AUCinf, T1/2, etc.).
# Table 3: Results of in vivo pharmacokinetic studies of compounds of the present disclosure in rats
# The vehicle for the Po group compound was 5% DMSO + 5% ethanol + 60% PEG400 + 30% normal saline; the vehicle for the Iv group compound was 10% ethanol + 20% pure water + 70% PEG400 solution.
# [3] = Table 1, read-out: LPAR1 inhibitory activity IC50
# [4] = male, rat, SD rats, Iv, 1 mg/kg
# [5] = male, rat, SD rats, Iv, 1 mg/kg, read-out: Cmax
# [6] = male, rat, SD rats, Po, 1 mg/kg
# [7] = male, rat, SD rats, Po, 1 mg/kg, read-out: Cmax
# [8] = male, rat, SD rats, Po, 3 mg/kg
# [9] = male, rat, SD rats, Po, 3 mg/kg, read-out: Cmax
# [10] = rat, SD rats, Iv, 1 mg/kg, read-out: Cmax
# [11] = rat, SD rats, Po, 1 mg/kg, read-out: Cmax
# [12] = LPAR1 inhibitory activity IC50, Table 1
# Chain of hLPAR1 (human lysophosphatidic acid receptor 1, Accession No.: NM_001401.4) (Q92633 whole entry): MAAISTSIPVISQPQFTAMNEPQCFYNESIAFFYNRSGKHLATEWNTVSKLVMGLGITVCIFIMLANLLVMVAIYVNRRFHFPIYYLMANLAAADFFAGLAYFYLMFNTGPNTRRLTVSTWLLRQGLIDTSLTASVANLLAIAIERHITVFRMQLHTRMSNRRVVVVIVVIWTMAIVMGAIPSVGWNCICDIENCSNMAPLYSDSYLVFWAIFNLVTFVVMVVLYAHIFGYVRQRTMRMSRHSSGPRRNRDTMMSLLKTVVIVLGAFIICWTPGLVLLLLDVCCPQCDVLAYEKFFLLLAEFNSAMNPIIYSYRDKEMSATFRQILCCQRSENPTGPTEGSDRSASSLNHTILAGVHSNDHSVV
SMILES,"pIC50 [1, 3]","half-life ([2]; male, SD, rat, iv, 1 mg/kg)","half-life ([2]; male, SD, rat, po, 1 mg/kg)","AUC(0-t) [2, 4]","Cmax [2, 5]","AUC(0-t) [2, 6]","Cmax [2, 7]","AUC(0-t) ([2]; rat, SD rats, Iv, 1 mg/kg)","half-life ([2]; rat, SD rats, Iv, 1 mg/kg)","Cmax [2, 10]","AUC(0-t) ([2]; rat, SD rats, Po, 1 mg/kg)","half-life ([2]; rat, SD rats, Po, 1 mg/kg)","Cmax [2, 11]",further results
"CCC(F)(F)[C@@H](C)OC(=O)Nc1c(-c2ccc(C#C[C@@H]3CC[C@H]3C(=O)O)c(C)n2)nnn1C (mixture of isomers) [212-B, trans-2-((6-(5-(((((R)-3,3-difluoropentan-2-yl)oxy)carbonyl)amino)-1-methyl-1H-1,2,3-triazol-4-yl)-2-methylpyridin-3-yl)ethynyl)cyclobutane-1-carboxylic acid]",7.59,7.43 h,7.96 h,5000 to 10000 ng·h/mL,800 to 5000 ng/mL,5000 to 10000 ng·h/mL,800 to 5000 ng/mL,,,,,,,
"Cc1nc(-c2nnn(C)c2NC(=O)O[C@H](C)CC(C)(F)F)ccc1C#C[C@@H]1CC[C@H]1C(=O)O (mixture of isomers) [213-B, trans-2-((6-(5-(((((R)-4,4-difluoropentan-2-yl)oxy)carbonyl)amino)-1-methyl-1H-1,2,3-triazol-4-yl)-2-methylpyridin-3-yl)ethynyl)cyclobutane-1-carboxylic acid]",7.43,,,,,,,,,,,,,"AUClast ([2]; SD rats, Iv, 1 mg/kg): *** (5000 ng/mL*hr ≤ AUClast < 10000 ng/mL*hr); Cmax ([2]; SD rats, Iv, 1 mg/kg): ** (800 ng/mL ≤ Cmax < 5000 ng/mL); T1/2 ([2]; SD rats, Iv, 1 mg/kg): 8.67 h; half-life ([2]; male, SD, rat, po, 3 mg/kg): 9.6 h; AUC(0-t) [2, 8]: 10000 to 20000 ng·h/mL; Cmax [2, 9]: 800 to 5000 ng/mL"
"CCC(F)(F)[C@@H](C)OC(=O)Nc1c(-c2ccc(C#C[C@@H]3CCC[C@H]3C(=O)O)c(C)n2)nnn1C (mixture of isomers) [219-B, trans-2-((6-(5-(((((R)-3,3-difluoropentan-2-yl)oxy)carbonyl)amino)-1-methyl-1H-1,2,3-triazol-4-yl)-2-methylpyridin-3-yl)ethynyl)cyclopentane-1-carboxylic acid]",7.94,3.89 h,4.24 h,5000 to 10000 ng·h/mL,800 to 5000 ng/mL,5000 to 10000 ng·h/mL,800 to 5000 ng/mL,,,,,,,
"Cc1nc(-c2nnn(C)c2NC(=O)O[C@H](C)CC(C)(C)F)ccc1C#C[C@@H]1CCC[C@H]1C(=O)O (mixture of isomers) [244-B, trans-2-((6-(5-(((((R)-4-fluoro-4-methylpentan-2-yl)oxy)carbonyl)amino)-1-methyl-1H-1,2,3-triazol-4-yl)-2-methylpyridin-3-yl)ethynyl)cyclopentane-1-carboxylic acid]",7.72,5.05 h,4.07 h,5000 to 10000 ng·h/mL,800 to 5000 ng/mL,5000 to 10000 ng·h/mL,800 to 5000 ng/mL,,,,,,,
"Cc1nc(-c2nnn(C)c2NC(=O)OC(C)c2cc(F)cnc2Cl)ccc1C#CC1(CC(=O)O)CC1 (single isomer, unassigned) [023-A, 2-(1-((6-(5-(((1-(2-chloro-5-fluoropyridin-3-yl)ethoxy)carbonyl)amino)-1-methyl-1H-1,2,3-triazol-4-yl)-2-methylpyridin-3-yl)ethynyl)cyclopropyl)acetic acid]",7.43,7.5 h,,3000 to 5000 ng·h/mL,5000 to 8000 ng/mL,,,,,,,,,
"CCC(F)(F)CC(C)OC(=O)Nc1c(-c2ccc(C#CC3CCC3C(=O)O)c(C)n2)nnn1C (single isomer, unassigned) [245-B]",7.46,,,,,,,3000 to 5000 ng·h/mL,7.22 h,800 to 5000 ng/mL,3000 to 5000 ng·h/mL,6.66 h,200 to 800 ng/mL,
"Cc1nc(-c2nnn(C)c2NC(=O)O[C@H](C)CC(C)(F)F)ccc1C#C[C@H]1CCC[C@@H]1C(=O)O (single isomer, unassigned) [246-B]",,,,,,,,5000 to 10000 ng·h/mL,7.01 h,800 to 5000 ng/mL,3000 to 5000 ng·h/mL,4.4 h,200 to 800 ng/mL,"pIC50 [1, 12]: 7.59"
"Cc1nc(-c2nnn(C)c2NC(=O)OC(C)CC2CC2)ccc1C#CC1CCC1C(=O)O (single isomer, unassigned) [248-A]",7.74,,,,,,,3000 to 5000 ng·h/mL,7.72 h,800 to 5000 ng/mL,5000 to 10000 ng·h/mL,5.33 h,200 to 800 ng/mL,
"CC(OC(=O)Nc1c(-c2ccc(C#CC3(CC(=O)O)CC3)c(F)n2)nnn1C)C12CC(C1)C2 (centres unmarked) [237-A, 2-(1-((6-(5-(((1-(bicyclo[1.1.1]pentan-1-yl)ethoxy)carbonyl)amino)-1-methyl-1H-1,2,3-triazol-4-yl)-2-fluoropyridin-3-yl)ethynyl)cyclopropyl)acetic acid]",7.46,5.19 h,4 h,5000 to 10000 ng·h/mL,5000 to 8000 ng/mL,5000 to 10000 ng·h/mL,800 to 5000 ng/mL,,,,,,,
"C[C@H](C1CC1)N(C)C(=O)OCc1c(-c2ccc(C#CC3(CC(=O)O)CC3)cn2)nnn1C [compound 002, (R)-2-(1-((6-(5-((((1-cyclopropylethyl)(methyl)carbamoyl)oxy)methyl)-1-methyl-1H-1,2,3-triazol-4-yl)pyridin-3-yl)ethynyl)cyclopropyl)acetic acid]",7.08,7.18 h,,1200 to 3000 ng·h/mL,5000 to 8000 ng/mL,,,,,,,,,"half-life ([2]; male, SD, rat, po, 3 mg/kg): 3.4 h; AUC(0-t) [2, 8]: 3000 to 5000 ng·h/mL; Cmax [2, 9]: 800 to 5000 ng/mL"
Cc1nc(-c2nnn(C)c2NC(=O)O[C@H](C)c2ccccc2Cl)ccc1C#C[C@H]1CC[C@@H]1C(=O)O [compound 033],,,,,,,,3000 to 5000 ng·h/mL,5.93 h,800 to 5000 ng/mL,3000 to 5000 ng·h/mL,5.31 h,800 to 5000 ng/mL,"pIC50 [1, 12]: 8.48"
